Reference: patent US9850216B2 (H. LEE MOFFITT CANCER CENTER AND RESEARCH INSTITUTE, INC., priority 2013, dated 2017)
Values joined by “and” are separate entries in the source; they are usually repeats but may differ in a detail not shown here. Equal entries are not always repeated.

Experiments:
ACK1 = ACK1 (Homo sapiens, UniProt Q07912); assay: ACK1 ELISA: phosphorylation of AKT-derived peptide; type: biochemical; conditions: 10 μM, Table 1, replicate values listed; for inhibition at 10 µM: read-out: % Inhibition at 10 μM (ELISA)
Chain of ACK1 (Q07912 whole entry): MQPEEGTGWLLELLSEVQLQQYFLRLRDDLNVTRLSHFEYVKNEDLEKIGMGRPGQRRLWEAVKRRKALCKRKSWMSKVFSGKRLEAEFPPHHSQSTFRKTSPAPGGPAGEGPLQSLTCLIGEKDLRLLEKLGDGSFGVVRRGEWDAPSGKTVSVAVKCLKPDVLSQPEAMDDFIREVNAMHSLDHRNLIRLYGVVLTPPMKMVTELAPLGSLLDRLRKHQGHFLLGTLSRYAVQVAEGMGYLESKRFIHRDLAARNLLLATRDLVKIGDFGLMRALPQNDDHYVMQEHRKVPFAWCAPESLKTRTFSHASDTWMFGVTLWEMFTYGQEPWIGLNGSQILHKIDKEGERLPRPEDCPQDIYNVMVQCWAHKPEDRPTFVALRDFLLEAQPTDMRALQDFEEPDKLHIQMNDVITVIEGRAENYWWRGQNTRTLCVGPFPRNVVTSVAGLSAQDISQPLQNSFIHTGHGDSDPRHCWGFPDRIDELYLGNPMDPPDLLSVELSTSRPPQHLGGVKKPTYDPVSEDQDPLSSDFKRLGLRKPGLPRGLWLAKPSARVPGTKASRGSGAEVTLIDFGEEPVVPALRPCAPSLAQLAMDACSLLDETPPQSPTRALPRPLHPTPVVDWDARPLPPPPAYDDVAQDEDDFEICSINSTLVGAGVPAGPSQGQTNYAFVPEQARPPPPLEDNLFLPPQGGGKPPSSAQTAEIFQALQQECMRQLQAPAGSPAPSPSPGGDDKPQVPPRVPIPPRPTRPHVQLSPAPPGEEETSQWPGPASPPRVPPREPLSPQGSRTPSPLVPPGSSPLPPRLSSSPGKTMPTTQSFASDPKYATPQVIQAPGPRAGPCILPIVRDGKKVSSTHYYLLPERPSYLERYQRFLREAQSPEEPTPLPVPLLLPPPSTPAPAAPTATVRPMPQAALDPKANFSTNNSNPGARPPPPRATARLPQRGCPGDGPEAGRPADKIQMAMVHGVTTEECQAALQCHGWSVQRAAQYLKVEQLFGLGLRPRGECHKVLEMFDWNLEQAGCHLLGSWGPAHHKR

| Compound | % Inhibition at 10 μM (ELISA) (ACK1) | melting point | inhibition at 10 µM (ACK1) [%] | % Inhibition at 10 μM (ELISA) (ACK1; hydrochloride) |
| --- | --- | --- | --- | --- |
| CCCS(=O)(=O)c1ccccc1Nc1nc(Cl)ncc1C(=O)Nc1c(F)cccc1Cl [YL7-052, 2-Chloro-N-(2-chloro-6-fluorophenyl)-4-(2-(propylsulfonyl)phenylamino)pyrimidine-5-carboxamide] | 0% and 14% and −8% | 226 to 229 °C |  |  |
| COc1ccc(CNc2ncc(C(=O)Nc3c(F)cccc3Cl)c(Nc3ccccc3S(=O)(=O)C(C)C)n2)cc1 [YL7-106-1, N-(2-chloro-6-fluorophenyl)-4-(2-(isopropylsulfonyl)phenylamino)-2-(4-methoxybenzylamino)pyrimidine-5-carboxamide] | 14% and 0% | 227 °C (dec.) |  |  |
| CCCSc1ccccc1Nc1nc(Cl)ncc1C(=O)Nc1c(F)cccc1Cl [YL7-051, 2-Chloro-N-(2-chloro-6-fluorophenyl)-4-(2-(propylthio)phenylamino)pyrimidine-5-carboxamide] |  | 197 to 200 °C | 0 |  |
| CS(=O)(=O)c1ccccc1Nc1nc(Cl)ncc1C(=O)Nc1c(F)cccc1Cl [YL7-034, 2-Chloro-N-(2-chloro-6-fluorophenyl)-4-(2-(methylsulfonyl)phenylamino)pyrimidine-5-carboxamide] | 16% and −3% and −6% | 211 to 214 °C |  |  |
| Cc1ccc(Nc2ncc(Br)c(NCC3CCCO3)n2)cc1F.Cl (stereo not shown) [YL7-172-4, 5-Bromo-N2-(3-fluoro-4-methylphenyl)-N4-((tetrahydrofuran-2-yl)methyl)pyrimidine-2,4-diamine hydrochloride] |  | 189 °C (dec.) |  | 0% and −12% and 20% |
| CC(C)(C)OC(=O)N1CCN(c2ccc(Nc3ncc(C(=O)Nc4c(F)cccc4Cl)c(NCC4CCCO4)n3)cc2)CC1.Cl (stereo not shown) [YL9-161, tert-Butyl4-(4-(5-(2-chloro-6-fluorophenylcarbamoyl)-4-((tetrahydrofuran-2-yl)methylamino)pyrimidin-2-ylamino)phenyl)piperazine-1-carboxylate hydrochloride] |  | 184 to 186 °C | 28 | 31% |
| CCCSc1ccccc1Nc1nc(Nc2ccc(O)cc2)ncc1C(=O)Nc1c(F)cccc1Cl [YL7-055-4, N-(2-chloro-6-fluorophenyl)-2-(4-hydroxyphenylamino)-4-(2-(propylthio)phenylamino)pyrimidine-5-carboxamide] | 27% | 208 °C (dec.) | 28 |  |
| O=C(Nc1c(F)cccc1Cl)c1cnc(Cl)nc1NCC1CCCO1 (stereo not shown) [YL7-102, 2-Chloro-N-(2-chloro-6-fluorophenyl)-4-((tetrahydrofuran-2-yl)methylamino)pyrimidine-5-carboxamide] |  | 142 °C (dec.) | 0 |  |
| CSc1ccccc1Nc1nc(Cl)ncc1C(=O)Nc1c(F)cccc1Cl [YL7-031B2, 2-Chloro-N-(2-chloro-6-fluorophenyl)-4-(2-(methylthio)phenylamino)pyrimidine-5-carboxamide] |  | 204 to 206 °C | 0 |  |
| Cl.Fc1cccc(Nc2ncc(Br)c(NCC3CCCO3)n2)c1 (stereo not shown) [YL7-172-3, 5-Bromo-N2-(3-fluorophenyl)-N4-((tetrahydrofuran-2-yl)methyl)pyrimidine-2,4-diamine hydrochloride] |  | 194 to 197 °C |  | 69% and 21% and 25% |
| CCS(=O)(=O)c1ccccc1Nc1nc(Cl)ncc1C(=O)Nc1c(F)cccc1Cl [YL7-054, 2-Chloro-N-(2-chloro-6-fluorophenyl)-4-(2-(ethylsulfonyl)phenylamino)pyrimidine-5-carboxamide] | 0% and −3% and −25% | 230 to 233 °C |  |  |
| CC(C)(C)OC(=O)N1CCN(c2ccc(Nc3ncc(Br)c(NCC4CCCO4)n3)cc2)CC1.Cl (stereo not shown) [YL9-157, tert-Butyl4-(4-(5-bromo-4-((tetrahydrofuran-2-yl)methylamino)pyrimidin-2-ylamino)phenyl)piperazine-1-carboxylate hydrochloride] |  | 124 °C (dec.) | 47 | 46% |
| CN1CCN(c2ccc(Nc3nc(NCC4CCCO4)c4ccccc4n3)cc2)CC1 (stereo not shown) [DZ1-106, N2-(4-(4-methylpiperazin-1-yl)phenyl)-N4-((tetrahydrofuran-2-yl)methyl)quinazoline-2,4-diamine] | 14% | 60.1 °C (dec.) | 19 |  |
| Cl.O=C(O)Cc1ccc(Nc2ncc(Br)c(NCC3CCCO3)n2)cc1 (stereo not shown) [NT1-022, 2-(4-(5-Bromo-4-((tetrahydrofuran-2-yl)methylamino)pyrimidin-2-ylamino)phenyl)acetic acid] | 63% | 120 °C (dec.) | 59 |  |
| Cl.O=C(O)c1cc(Nc2ncc(Br)c(NCC3CCCO3)n2)ccc1O (stereo not shown) [YL8-003-1, 5-(5-Bromo-4-((tetrahydrofuran-2-yl)methylamino)pyrimidin-2-ylamino)-2-hydroxybenzoic acid hydrochloride] |  | 211 °C (dec.) | 27 | 28% and 16% |
| CCS(=O)(=O)c1ccccc1Nc1nc(Nc2ccc(OC)cc2)ncc1C(=O)Nc1c(F)cccc1Cl [YL7-058-1, N-(2-chloro-6-fluorophenyl)-4-(2-(ethylsulfonyl)phenylamino)-2-(4-methoxyphenylamino)pyrimidine-5-carboxamide] | −6% and 0% | 263 to 265 °C |  |  |
| CC(C)S(=O)(=O)c1ccccc1Nc1nc(Nc2ccc(O)cc2)ncc1C(=O)Nc1c(F)cccc1Cl [YL7-045-2, N-(2-chloro-6-fluorophenyl)-2-(4-hydroxyphenylamino)-4-(2-(isopropylsulfonyl)phenylamino)pyrimidine-5-carboxamide] | 50% | 168 °C (dec.) | 47 |  |
| CCc1cnc(Nc2ccc(N3CCN(C)CC3)cc2)nc1NCC1CCCO1 (stereo not shown) [DZ1-108, 5-ethyl-N2-(4-(4-methylpiperazin-1-yl)phenyl)-N4-((tetrahydrofuran-2-yl)methyl)pyrimidine-2,4-diamine] | 72% and 48% and 34% and 46% | 209.5 °C (dec.) |  |  |
| COc1ccc(Nc2ncc(Br)c(NCC3CCCO3)n2)cc1F.Cl (stereo not shown) [YL7-172-8, 5-Bromo-N2-(3-fluoro-4-methoxyphenyl)-N4-((tetrahydrofuran-2-yl)methyl)pyrimidine-2,4-diamine hydrochloride] |  | 169 °C (dec.) |  | 14% and 35% and 41% |
| Cc1cnc(Nc2ccc(N3CCN(C)CC3)cc2)nc1NCC1CCCO1 (stereo not shown) [DZ1-100, 5-methyl-N2-(4-(4-methylpiperazin-1-yl)phenyl)-N4-((tetrahydrofuran-2-yl)methyl)pyrimidine-2,4-diamine] | 85% and 54% and 5% and 10% | 151.7 °C (dec.) |  |  |
| CC(C)S(=O)(=O)c1ccccc1Nc1nc(Cl)ncc1C(=O)Nc1c(F)cccc1Cl [YL7-041, 2-Chloro-N-(2-chloro-6-fluorophenyl)-4-(2-(isopropylsulfonyl)phenylamino)pyrimidine-5-carboxamide] | 7% and −21% and −27% | 225 to 227 °C |  |  |
| CSc1ccccc1Nc1nc(Nc2ccc(O)cc2)ncc1C(=O)Nc1c(F)cccc1Cl [YL7-039-2, N-(2-chloro-6-fluorophenyl)-2-(4-hydroxyphenylamino)-4-(2-(methylthio)phenylamino)pyrimidine-5-carboxamide] | 40% and 5% | 246 °C (dec.) |  |  |
| Cl.O=C(Nc1c(F)cccc1Cl)c1cnc(Nc2ccc(N3CCOCC3)cc2)nc1NCC1CCCO1 (stereo not shown) [DZ1-092, N-(2-chloro-6-fluorophenyl)-2-(4-morpholinophenylamino)-4-((tetrahydrofuran-2-yl)methylamino)pyrimidine-5-carboxamide] | 88% |  | 77 |  |
| CN(C)CCNC(=O)CCc1ccc(Nc2ncc(Cl)c(NCC3CCCO3)n2)cc1.Cl (stereo not shown) [NT1-028, 3-(4-(5-Chloro-4-((tetrahydrofuran-2-yl)methylamino)pyrimidin-2-ylamino)phenyl)-N-(2-(dimethylamino)ethyl)propanamide] | 74% |  | 62 |  |
| COc1cc(N2CCOCC2)ccc1Nc1ncc(Cl)c(NCC2CCCO2)n1 (stereo not shown) [MH1-030-4, 5-chloro-N2-(2-methoxy-4-morpholinophenyl)-N4-((tetrahydrofuran-2-yl)methyl)pyrimidine-2,4-diamine] | 82% |  | 88 |  |
| Cl.Clc1cnc(Nc2ccc(C3CCNCC3)cc2)nc1NC[C@@H]1CCCO1 [NT1-011, (S)-5-Chloro-N^2-(4-(piperidin-4-yl)phenyl)-N^4-((tetrahydrofuran-2-yl)methyl)pyrimidine-2,4-diamine] | 76% |  | 77 |  |
| Brc1cnc(Nc2ccc(C3CCNCC3)cc2)nc1NCC1CCCO1.Cl (stereo not shown) [DZ1-088, 5-bromo-N2-(4-(piperidin-4-yl)phenyl)-N4-((tetrahydrofuran-2-yl)methyl)pyrimidine-2,4-diamine] | 85% |  | 84 |  |
| CCNC(=O)C1CCN(c2ccc(Nc3ncc(Cl)c(NC[C@@H]4CCCO4)n3)cc2)CC1 [SG1-083] | 61% |  | 73 |  |
| O=C(O)CCC(=O)N1CCN(c2ccc(Nc3ncc(Br)c(NCC4CCCO4)n3)cc2)CC1 (stereo not shown) [YL9-168, 4-(4-(4-(5-Bromo-4-((tetrahydrofuran-2-yl)methylamino)pyrimidin-2-ylamino)phenyl)piperazin-1-yl)-4-oxobutanoic acid] | 90% |  | 94 |  |
| Cl.O=C(O)CCc1ccc(Nc2ncc(Cl)c(NC[C@@H]3CCCO3)n2)cc1 [NT1-015, (S)-3-(4-(5-Chloro-4-((tetrahydrofuran-2-yl)methylamino)pyrimidin-2-ylamino)phenyl)propanoic acid] | 72% |  | 70 |  |
